Experimental findings from patent US7973056B2, “Triazole derivative or salt thereof” (Fujifilm Finechemicals Co., Ltd, priority 2008, dated 2011) are described below.

≈ marks a conversion by molar mass, not a printed value.

Data set [1] concerns Candida albicans ATCC 10231. The experiment in a line: Antifungal activity test (in vitro), MIC. It is filed as cell-based. Conditions: ATCC10231. The protocol:
(§1) Minimum inhibitory concentration (MIC) of each of the compounds obtained in Examples 1 to 12 was measured for respective fungi at MOS Pharm Service, by the methods described in Antimicrobial Agents and Chemotherapy, vol. 3, pp. 40-48 (1973), Antimicrobial Agents and Chemotherapy, vol. 33, pp. 215-222 (1989) and Antimicrobial Agents and Chemotherapy, vol. 38, pp. 2362-2368 (1994). The measuring conditions are shown in the following. In this case, Voriconazol was used as a comparative compound. Candida albicans ATCC 10231 and ATCC 44858; Cultured at 37° C. for 20 hours using fluid Sabouraud medium, and this was used as a cell suspension. Each of the compounds of the invention was adjusted to a concentration of 1% by weight using dimethyl sulfoxide (DMSO) and a medium similar to the respective medium used in the above-mentioned fungal culture, having a final concentration of from 0.001 to 100 μg/ml, was prepared. Each of the inoculation cell suspensions prepared by the above-mentioned methods was inoculated onto this agar plate. […] In this connection, Voriconazol was used as the comparative compound C-1.

For data set [2], the system named is Cryptococcus neoformans ATCC 24067. The experiment in a line: Antifungal activity test (in vitro), MIC. Conditions: ATCC24067. It is filed as cell-based. The protocol:
as §1, with “Cryptococcus neoformans” for “Candida albicans”, “24067, Pityrosporum ovale” for “10231 and”, “38593;” for “44858;”, “2 day” for “20 hours”

Data set [3] relates to Pityrosporum ovale ATCC 38593. In words: Antifungal activity test (in vitro), MIC. It is filed as cell-based. Conditions: Malassezia furfur, ATCC38593. The protocol: as §1, with “Cryptococcus neoformans” for “Candida albicans”, “24067, Pityrosporum ovale” for “10231 and”, “38593;” for “44858;”, “2 day” for “20 hours”
Data set [4] relates to Aspergillus fumigatus ATCC 1028. In words: Antifungal activity test (in vitro), MIC. Conditions: ATCC1028. The data set is classed as cell-based. On the procedure: Minimum inhibitory concentration (MIC) of each of the compounds obtained in Examples 1 to 12 was measured for respective fungi at MOS Pharm Service, by the methods described in Antimicrobial Agents and Chemotherapy, vol. 3, pp. 40-48 (1973), Antimicrobial Agents and Chemotherapy, vol. 33, pp. 215-222 (1989) and Antimicrobial Agents and Chemotherapy, vol. 38, pp. 2362-2368 (1994). The measuring conditions are shown in the following. In this case, Voriconazol was used as a comparative compound.
Aspergillus fumigatus ATCC 1028; Cultured at 28° C. for 2 days using potato dextrose broth, and this was used as a cell suspension.
Each of the compounds of the invention was adjusted to a concentration of 1% by weight using dimethyl sulfoxide (DMSO) and a medium similar to the respective medium used in the above-mentioned fungal culture, having a final concentration of from 0.001 to 100 μg/ml, was prepared. Each of the inoculation cell suspensions prepared by the above-mentioned methods was inoculated onto this agar plate. […] In this connection, Voriconazol was used as the comparative compound C-1.

In data set [5] the test system is Trichophyton mentagrophytes ATCC 9533. The experiment in a line: Antifungal activity test (in vitro), MIC. It is filed as cell-based. To be noted: ATCC9533. The protocol: as §1, with “Trichophyton mentagrophytes” for “Candida albicans”, “9533;” for “10231 and ATCC 44858;”, “28°” for “37°”, “3 days” for “20 hours”
The subject of data set [6] is Microsporum canis ATCC 36299. In words: Antifungal activity test (in vitro), MIC. The data set is classed as cell-based. Conditions: ATCC36299. The protocol: as §1, with “Microsporum canis” for “Candida albicans”, “36299;” for “10231 and ATCC 44858;”, “30°” for “37°”, “2 days” for “20 hours”

Take `C[C@@H](N1CCC(c2ccc(F)cn2)CC1)[C@](O)(Cn1cncn1)c1ccc(F)cc1F` [I-2, (2R,3R)-2-(2,4-difluorophenyl)-3-[4-(5-fluoropyridin-2-yl)piperidin-1-yl]-1-(1,2,4-triazol-1-yl)butan-2-ol]: the melting point was in the range of 100 to 102 °C. This molecule returned an MIC in data set [1] of 0.1 µg/mL (≈ 0.232 µM). This molecule came in with an MIC in data set [2] of 0.3 µg/mL (≈ 0.695 µM). The molecule also showed an MIC in data set [3] of 0.01 µg/mL (≈ 0.0232 µM). Also, in data set [4], 10 µg/mL (≈ 23.2 µM) was the least that counted as inhibitory (MIC). Also, the MIC in data set [5] came to 1 µg/mL (≈ 2.32 µM). The same molecule gave an MIC in data set [6] of 10 µg/mL (≈ 23.2 µM).
In the case of `Cc1ccc(C2=CCN([C@H](C)[C@](O)(Cn3cncn3)c3ccc(F)cc3F)CC2)nc1C` [I-4, (2R,3R)-2-(2,4-difluorophenyl)-3-(5,6-dimethyl-3′,6′-dihydro-2,4′-bipyridin-1′(2′H)-yl)-1-(1,2,4-triazol-1-yl)butan-2-ol], the melting point lay in the range of 85.5 to 87.5 °C. In data set [1], the MIC was 0.3 µg/mL (≈ 0.683 µM). This molecule had an MIC in data set [2] of 0.1 µg/mL (≈ 0.228 µM). Inhibition of growth in data set [3] (MIC) required 10 µg/mL (≈ 22.8 µM). Besides, the MIC in data set [4] amounted to 10 µg/mL (≈ 22.8 µM). In data set [5], this molecule returned an MIC of 0.3 µg/mL (≈ 0.683 µM). The molecule further had an MIC in data set [6] of 1 µg/mL (≈ 2.28 µM).
In turn, `Cc1ccc(C2=CCN([C@H](C)[C@](O)(Cn3cncn3)c3ccc(F)cc3F)CC2)nc1` [I-5, (2R,3R)-2-(2,4-difluorophenyl)-3-(5-methyl-3′,6′-dihydro-2,4′-bipyridin-1′(2′H)-yl)-1-(1,2,4-triazol-1-yl)butan-2-ol] registered a melting point of 115 to 117 °C. The MIC in data set [1] stood at 0.1 µg/mL (≈ 0.235 µM). For the same molecule, in data set [2], the MIC is 0.03 µg/mL (≈ 0.0705 µM). In addition, the MIC in data set [3] was found to be 0.003 µg/mL (≈ 0.00705 µM). In data set [4], this molecule registered an MIC of 3 µg/mL (≈ 7.05 µM). Inhibition of growth in data set [5] (MIC) required 0.1 µg/mL (≈ 0.235 µM). This molecule returned a minimal inhibitory concentration (MIC) in data set [6] of 1 µg/mL (≈ 2.35 µM).
The molecule `C[C@@H](N1CC=C(c2ccc(F)cn2)CC1)[C@](O)(Cn1cncn1)c1ccc(F)cc1F` [I-7, (2R,3R)-2-(2,4-difluorophenyl)-3-(5-fluoro-3′,6′-dihydro-2,4′-bipyridin-1′(2′H)-yl)-1-(1,2,4-triazol-1-yl)butan-2-ol] had a melting point of 148 to 150 °C. The MIC in data set [1] came out at 0.1 µg/mL (≈ 0.233 µM). Besides, the lowest concentration to inhibit growth in data set [2] (MIC) was 0.3 µg/mL (≈ 0.699 µM). In data set [3], this molecule displayed an MIC of 0.01 µg/mL (≈ 0.0233 µM). This molecule registered an MIC in data set [4] of 10 µg/mL (≈ 23.3 µM). Inhibition of growth in data set [5] (MIC) required 1 µg/mL (≈ 2.33 µM). The molecule further registered an MIC in data set [6] of 10 µg/mL (≈ 23.3 µM).
The molecule `C[C@@H](Oc1cc(-c2ccccn2)ccn1)[C@](O)(Cn1cncn1)c1ccc(F)cc1F` [I-9, (2R,3R)-3-(2,4′-bipyridin-2′-yloxy)-2-(2,4-difluorophenyl)-1-(1,2,4-triazol-1-yl)butan-2-ol] had a melting point of 178 to 180 °C. The same molecule came in with an MIC in data set [1] of 0.3 µg/mL (≈ 0.709 µM). Also, it took 0.3 µg/mL (≈ 0.709 µM) to inhibit growth in data set [2] (MIC). It took 0.3 µg/mL (≈ 0.709 µM) to inhibit growth in data set [3] (MIC). In data set [4], this molecule gave an MIC of 30 µg/mL (≈ 70.9 µM). The same molecule gave an MIC in data set [5] of 10 µg/mL (≈ 23.6 µM). The same molecule yielded an MIC in data set [6] of 10 µg/mL (≈ 23.6 µM).
In turn, `C[C@@H](N1CCC=C(c2ccccn2)C1)[C@](O)(Cn1cncn1)c1ccc(F)cc1F` [I-10, (2R,3R)-2-(2,4-difluorophenyl)-3-(5′,6′-dihydro-2,3′-bipyridin-1′(2′H)-yl)-1-(1,2,4-triazol-1-yl)butan-2-ol] displayed a melting point of 89 to 92 °C. In data set [1], this molecule gave an MIC of 3 µg/mL (≈ 7.29 µM). For the same molecule, in data set [2], the lowest concentration to inhibit growth (MIC) was 1 µg/mL (≈ 2.43 µM). The same molecule returned an MIC in data set [3] of 0.3 µg/mL (≈ 0.729 µM). The same molecule showed an MIC in data set [4] of 100 µg/mL (≈ 243 µM). In data set [5], this molecule showed an MIC of 3 µg/mL (≈ 7.29 µM). In data set [6], this molecule displayed an MIC of 100 µg/mL (≈ 243 µM).
As for `Cc1ccc(C2=CCCN([C@H](C)[C@](O)(Cn3cncn3)c3ccc(F)cc3F)C2)nc1C` [I-11, (2R,3R)-2-(2,4-difluorophenyl)-3-(5,6-dimethyl-5′,6′-dihydro-2,3′-bipyridin-1′(2′H)-yl)-1-(1,2,4-triazol-1-yl)butan-2-ol], the MIC worked out at 100 µg/mL (≈ 228 µM) in data set [1]; 0.3 µg/mL (≈ 0.683 µM) in data set [2]; 0.1 µg/mL (≈ 0.228 µM) in data set [3]; 100 µg/mL (≈ 228 µM) in data set [4]; 10 µg/mL (≈ 22.8 µM) in data set [5]; 10 µg/mL (≈ 22.8 µM) in data set [6].
For `C[C@@H](N1CCCC(c2ccccn2)C1)[C@](O)(Cn1cncn1)c1ccc(F)cc1F` (stereo partly drawn) [I-12, (2R,3R)-2-(2,4-difluorophenyl)-3-(3-pyridin-2-ylpiperidin-1-yl)-1-(1,2,4-triazol-1-yl)butan-2-ol], the melting point fell in the range of 75 to 78 °C. The molecule also came in with an MIC in data set [1] of 0.1 µg/mL (≈ 0.242 µM). The same molecule came in with an MIC in data set [2] of 10 µg/mL (≈ 24.2 µM). In addition, 10 µg/mL (≈ 24.2 µM) was the least that counted as inhibitory in data set [3] (MIC). In addition, in data set [4], the MIC was 100 µg/mL (≈ 242 µM). This molecule had an MIC in data set [5] of 100 µg/mL (≈ 242 µM). Also, 100 µg/mL (≈ 242 µM) was the least that counted as inhibitory in data set [6] (MIC).
